According to the Kinase Knowledgebase extract (Sharma et al. 2016):

The molecules below were run against MAPK14 (human) (UniProt Q16539) (assay: In vitro Inhibition of VEGF Stimulated MAPK Activation).
MAPK14 (human), sequence (Q16539 whole entry, looked up): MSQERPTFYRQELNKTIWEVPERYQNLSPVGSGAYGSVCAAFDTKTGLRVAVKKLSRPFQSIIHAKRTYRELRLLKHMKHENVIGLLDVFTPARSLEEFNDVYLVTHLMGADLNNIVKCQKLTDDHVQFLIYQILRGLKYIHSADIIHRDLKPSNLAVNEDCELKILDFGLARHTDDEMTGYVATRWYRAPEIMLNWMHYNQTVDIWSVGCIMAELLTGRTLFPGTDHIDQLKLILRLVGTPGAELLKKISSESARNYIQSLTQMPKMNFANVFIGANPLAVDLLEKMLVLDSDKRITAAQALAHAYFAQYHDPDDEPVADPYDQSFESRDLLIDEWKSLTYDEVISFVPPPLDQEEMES

IC50 | Structure (SMILES)
0.5 nM | COCCOc1cc2nccc(Oc3ccc(NC(=O)Nc4ccc(F)cc4F)c(Cl)c3)c2cc1OC
0.7 nM | COc1cc2ncnc(Oc3ccc(NC(=O)Nc4ccc(F)cc4)c(Cl)c3)c2cc1OC
71 nM | CCCCNC(=O)Nc1ccc(Oc2ncnc3cc(OC)c(OC)cc23)cc1Cl
45 nM | C=CCNC(=O)Nc1ccc(Oc2ncnc3cc(OC)c(OC)cc23)cc1
0.5 nM | COc1cc2nccc(Oc3ccc(NC(=O)Nc4ccc(F)cc4F)c([N+](=O)[O-])c3)c2cc1OC
30 nM | CCC(C)NC(=O)Nc1ccc(Oc2ncnc3cc(OC)c(OC)cc23)cc1Cl (stereo not drawn)
2.1 nM | C=CCNC(=O)Nc1ccc(Oc2ccnc3cc(OC)c(OC)cc23)cc1F
1.8 nM | COc1cc2ncnc(Oc3ccc(NC(=O)Nc4ccc(F)cc4F)c(F)c3)c2cc1OC
750 nM | COc1cc2ncnc(Oc3ccc(NC(=O)NCc4ccccn4)cc3)c2cc1OC
70 nM | CCNC(=O)Nc1ccc(Oc2ncnc3cc(OC)c(OC)cc23)cc1
3.8 nM | COc1cc2ncnc(Oc3ccc(NC(=O)NCc4ccc(F)cc4F)c(Cl)c3)c2cc1OC
2.3 nM | COc1cc2ncnc(Oc3ccc(NC(=O)Nc4ccc(F)cc4)c(C)c3)c2cc1OC
1.8 nM | COc1cc2nccc(Oc3ccc(NC(=O)NCc4ccc(F)cc4F)c(F)c3)c2cc1OC
> 1000 nM | COc1cc2ncnc(Oc3ccc(NC(=O)NCc4ccccn4)c(Cl)c3)c2cc1OC
150 nM | CCCNC(=O)Nc1ccc(Oc2ncnc3cc(OC)c(OC)cc23)cc1C
0.6 nM | COc1ccccc1NC(=O)Nc1ccc(Oc2ncnc3cc(OC)c(OC)cc23)cc1Cl
58 nM | COc1cc2ncnc(Oc3ccc(NC(=O)Nc4ccc(Cl)cn4)c(Cl)c3)c2cc1OC
45 nM | CCCCNC(=O)Nc1ccc(Oc2ncnc3cc(OC)c(OC)cc23)cc1F
< 1 nM | COc1ccccc1NC(=O)Nc1ccc(Oc2ncnc3cc(OC)c(OC)cc23)cc1C
2.9 nM | CCCNC(=O)Nc1ccc(Oc2ccnc3cc(OC)c(OC)cc23)cc1F

IC50 | Structure (SMILES)
4.1 nM | CCCCCNC(=O)Nc1ccc(Oc2ncnc3cc(OC)c(OC)cc23)cc1Cl
8 nM | CCNC(=O)Nc1ccc(Oc2ncnc3cc(OC)c(OC)cc23)cc1Cl
46 nM | C#CCNC(=O)Nc1ccc(Oc2ncnc3cc(OC)c(OC)cc23)cc1F
53 nM | CCCCNC(=O)Nc1ccc(Oc2ncnc3cc(OC)c(OC)cc23)cc1C
15 nM | COc1cc2nccc(Oc3ccc(NC(=O)NCC(C)C)c(F)c3)c2cc1OC
6800 nM | COc1cc2ncnc(Oc3ccc(NC(=O)NCc4ccc(F)cc4F)cc3)c2cc1OC
42 nM | CCC(C)NC(=O)Nc1ccc(Oc2ncnc3cc(OC)c(OC)cc23)cc1F (stereo not drawn)
14 nM | COc1cc2ncnc(Oc3ccc(NC(=O)NCc4ccc(F)cc4F)c(F)c3)c2cc1OC
42 nM | CCCNC(=O)Nc1ccc(Oc2ncnc3cc(OC)c(OC)cc23)cc1
2.7 nM | COc1cc2ncnc(Oc3ccc(NC(=O)Nc4ccccc4C)c(F)c3)c2cc1OC
< 2 nM | COc1cc2ncnc(Oc3ccc(NC(=O)Nc4ccc(F)cc4)cc3)c2cc1OC
10.2 nM | CCCNC(=O)Nc1ccc(Oc2ncnc3cc(OC)c(OC)cc23)cc1[N+](=O)[O-]
13 nM | C=CCNC(=O)Nc1ccc(Oc2ncnc3cc(OC)c(OC)cc23)cc1Cl
67 nM | C#CCNC(=O)Nc1ccc(Oc2ncnc3cc(OC)c(OC)cc23)cc1
16 nM | CCCNC(=O)Nc1ccc(Oc2ncnc3cc(OC)c(OC)cc23)cc1Cl
11 nM | CCNC(=O)Nc1ccc(Oc2ccnc3cc(OC)c(OC)cc23)cc1F
5.3 nM | COc1cc2ncnc(Oc3ccc(NC(=O)Nc4ccc(F)cc4F)c(C)c3)c2cc1OC
8.8 nM | COc1cc2ncnc(Oc3ccc(NC(=O)Nc4ccc(F)cc4F)cc3C)c2cc1OC
5.2 nM | C#CCNC(=O)Nc1ccc(Oc2ccnc3cc(OC)c(OC)cc23)cc1F
< 1 nM | COc1ccccc1NC(=O)Nc1ccc(Oc2ncnc3cc(OC)c(OC)cc23)cc1F

More lines, now with the values behind:

Structure (SMILES) | IC50
COc1cc2nccc(Oc3ccc(NC(=O)Nc4ccc(F)cc4C)c(C)c3C)c2cc1OC | 3.9 nM
COc1cc2nccc(Oc3ccc(NC(=O)Nc4cccc(C)n4)c(C)c3C)c2cc1OC | 3.7 nM
CCCNC(=O)Nc1ccc(Oc2ccnc3cc(OC)c(OC)cc23)cc1[N+](=O)[O-] | 4 nM
COc1cc2nccc(Oc3ccc(NC(=O)Nc4ccc(Br)cn4)c(C)c3C)c2cc1OC | 4.4 nM
COCCOc1cc2nccc(Oc3cc(C)c(NC(=O)Nc4ccc(F)cc4F)cc3C)c2cc1OC | 5.1 nM
COc1cc2nccc(Oc3ccc(NC(=O)Nc4cccc(F)c4OC)c(C)c3C)c2cc1OC | 5.3 nM
COc1cc2c(Oc3ccc(NC(=O)Nc4ccc(F)cc4F)c(F)c3)ccnc2cc1OCCN1CCOCC1 | 0.5 nM
COc1cc2nccc(Oc3cc(C)c(NC(=O)Nc4ccc(F)cc4F)cc3C)c2cc1OC | 2.3 nM
COc1cc2ncnc(Oc3ccc(NC(=O)Nc4ccccc4C)cc3)c2cc1OC | 6 nM
COc1cc2nccc(Oc3c(Cl)cc(NC(=O)Nc4ccc(F)cc4F)cc3Cl)c2cc1OC | 4.3 nM
COCCOc1cc2nccc(Oc3ccc(NC(=O)Nc4ccccc4OC)c(C)c3C)c2cc1OC | 6.5 nM
COc1ccccc1NC(=O)Nc1ccc(Oc2ccnc3cc(OC)c(OC)cc23)cc1Cl | 0.6 nM
COc1cc2nccc(Oc3ccc(NC(=O)Nc4ccc(F)cc4F)c(C)c3C)c2cc1OC | 0.6 nM
COc1cc2nccc(Oc3ccc(NC(=O)Nc4ccc(Cl)cn4)c(Cl)c3)c2cc1OC | 2.9 nM
CCC(C)NC(=O)Nc1ccc(Oc2ncnc3cc(OC)c(OC)cc23)cc1 (stereo not drawn) | 345 nM
COc1cc2nccc(Oc3ccc(NC(=O)Nc4ccccc4C)c(Cl)c3)c2cc1OC | 0.6 nM
COc1cc2nccc(Oc3ccc(NC(=O)Nc4ccc(Br)cn4)c(Cl)c3)c2cc1OC | 11 nM
COc1cc2nccc(Oc3ccc(NC(=O)Nc4ccccc4C)c(C)c3C)c2cc1OC | 2.5 nM
COc1cc2nccc(Oc3cc(C)c(NC(=O)Nc4cccc(F)c4OC)cc3C)c2cc1OC | 4.9 nM
CCCNC(=O)Nc1ccc(Oc2ncnc3cc(OC)c(OC)cc23)c(C)c1 | 518 nM
COc1cc2nccc(Oc3ccc(NC(=O)Nc4ccccn4)c(C)c3C)c2cc1OC | 3.5 nM
COc1ccccc1NC(=O)Nc1cc(C)c(Oc2ccnc3cc(OCCN4CCOCC4)c(OC)cc23)cc1C | 5.9 nM
COc1ccc(NC(=O)Nc2ccc(Oc3ccnc4cc(OC)c(OC)cc34)c(C)c2C)cc1 | 3.3 nM
COc1cc2ncnc(Oc3ccc(NC(=O)Nc4ccc(F)cc4)cc3C)c2cc1OC | 5.2 nM

Structure (SMILES) | IC50
COc1cc2c(Oc3cc(C)c(NC(=O)Nc4ccc(F)cc4F)cc3C)ccnc2cc1OCCN1CCOCC1 | 4.4 nM
COc1cc2nccc(Oc3ccc(NC(=O)Nc4ccc(F)cc4C)c(Cl)c3)c2cc1OC | 0.7 nM
COc1ccccc1NC(=O)Nc1cc(C)c(Oc2ccnc3cc(OC)c(OC)cc23)cc1C | 3.8 nM
COc1ccccc1NC(=O)Nc1ccc(Oc2ccnc3cc(OC)c(OC)cc23)c(C)c1C | 1.7 nM
COc1cc2nccc(Oc3ccc(NC(=O)Nc4ccc(Cl)cn4)c(C)c3C)c2cc1OC | 4 nM
CCC(C)NC(=O)Nc1ccc(Oc2ccnc3cc(OC)c(OC)cc23)cc1F (stereo not drawn) | 7.8 nM
COc1cc2nccc(Oc3ccc(NC(=O)Nc4ccc(C)cn4)c(C)c3C)c2cc1OC | 4.2 nM
CCCCCNC(=O)Nc1ccc(Oc2ncnc3cc(OC)c(OC)cc23)cc1 | 21 nM
COc1ccc(NC(=O)Nc2cc(C)c(Oc3ccnc4cc(OC)c(OC)cc34)cc2C)cc1 | 4.3 nM
CCCCNC(=O)Nc1ccc(Oc2ncnc3cc(OC)c(OC)cc23)c(C)c1 | 450 nM
CCCNC(=O)Nc1ccc(Oc2ccnc3cc(OC)c(OC)cc23)cc1Cl | 2.2 nM
CCCCNC(=O)Nc1ccc(Oc2ccnc3cc(OC)c(OC)cc23)cc1F | 5.1 nM
COc1cc2nccc(Oc3cc(C)c(NC(=O)Nc4ccccc4C)cc3C)c2cc1OC | 5.9 nM
COc1cc2nccc(Oc3ccc(NC(=O)Nc4cccc(C)n4)c(Cl)c3)c2cc1OC | 3.4 nM
COCCOc1cc2nccc(Oc3cc(C)c(NC(=O)Nc4ccccc4OC)cc3C)c2cc1OC | 5.8 nM
COc1cc2nccc(Oc3cc(C)c(NC(=O)Nc4ccc(F)cc4C)cc3C)c2cc1OC | 12 nM
COc1cc2nccc(Oc3ccc(NC(=O)Nc4ccc(C)cn4)c(Cl)c3)c2cc1OC | 8.5 nM
COCCOc1cc2nccc(Oc3ccc(NC(=O)Nc4ccccc4OC)c(Cl)c3)c2cc1OC | 2.8 nM
COc1cc2nccc(Oc3ccc(NC(=O)Nc4cccc5ccccc45)c(Cl)c3)c2cc1OC | 5.4 nM
COc1ccc(NC(=O)Nc2ccc(Oc3ccnc4cc(OC)c(OC)cc34)cc2Cl)cc1 | 0.4 nM
COc1ccc(NC(=O)Nc2cc(C)c(Oc3ccnc4cc(OC)c(OC)cc34)cc2C)c(OC)n1 | 2 nM
COc1cc2nccc(Oc3ccc(NC(=O)Nc4ccc(Cl)cc4C)c(C)c3C)c2cc1OC | 7.3 nM
COc1ccccc1NC(=O)Nc1ccc(Oc2ncnc3cc(OC)c(OC)cc23)cc1 | 1.2 nM
COCCOc1cc2nccc(Oc3ccc(NC(=O)Nc4ccc(F)cc4F)c(C)c3C)c2cc1OC | 5.1 nM
